Activity calls are given as the source filed them. The rule behind the calls is not given here.
Tests used:
Assay type in all cases: functional, cell-based
[1] = biological target: T1, Taste receptor type 2 member 20 (Homo sapiens) (UniProt P59543); experiment: Antagonist activity at recombinant human N-terminal rat ST3 receptor-fused TAS2R49 expressed in HEK293T cells co-expressing Galpha16gust44 assessed as inhibition of cromolyn-induced increase in intracellular calcium level at 100 uM by FLIPR assay
T1 sequence (whole entry): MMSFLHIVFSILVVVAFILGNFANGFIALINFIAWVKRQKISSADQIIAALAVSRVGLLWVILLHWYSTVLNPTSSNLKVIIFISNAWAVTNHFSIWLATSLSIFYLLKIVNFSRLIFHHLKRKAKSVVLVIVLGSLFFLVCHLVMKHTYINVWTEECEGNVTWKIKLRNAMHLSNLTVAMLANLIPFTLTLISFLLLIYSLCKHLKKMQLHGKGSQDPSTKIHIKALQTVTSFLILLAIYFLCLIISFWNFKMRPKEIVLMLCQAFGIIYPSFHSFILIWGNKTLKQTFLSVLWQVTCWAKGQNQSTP

[2] = biological target: T2, Taste receptor type 2 member 50 (Homo sapiens) (UniProt P59544); experiment: Antagonist activity at recombinant human N-terminal rat ST3 receptor-fused TAS2R50 expressed in HEK293T cells co-expressing Galpha16gust44 assessed as inhibition of andrographolide-induced increase in intracellular calcium level at 100 uM by FLIPR assay
T2 sequence (whole entry): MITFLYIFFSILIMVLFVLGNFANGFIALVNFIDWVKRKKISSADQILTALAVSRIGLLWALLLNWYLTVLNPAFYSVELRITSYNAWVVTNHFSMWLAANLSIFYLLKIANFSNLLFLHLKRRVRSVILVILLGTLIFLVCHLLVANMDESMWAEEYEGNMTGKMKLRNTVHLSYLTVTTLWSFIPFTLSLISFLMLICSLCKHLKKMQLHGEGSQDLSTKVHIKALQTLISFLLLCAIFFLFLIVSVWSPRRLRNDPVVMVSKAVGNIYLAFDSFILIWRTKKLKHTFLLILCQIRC

[3] = biological target: T3, Taste receptor type 2 member 46 (Homo sapiens) (UniProt P59540); experiment: Antagonist activity at recombinant human N-terminal rat ST3 receptor-fused TAS2R46 expressed in HEK293T cells co-expressing Galpha16gust44 assessed as inhibition of picrotoxinin-induced intracellular calcium level at 100 uM by FLIPR assay
T3 sequence (whole entry): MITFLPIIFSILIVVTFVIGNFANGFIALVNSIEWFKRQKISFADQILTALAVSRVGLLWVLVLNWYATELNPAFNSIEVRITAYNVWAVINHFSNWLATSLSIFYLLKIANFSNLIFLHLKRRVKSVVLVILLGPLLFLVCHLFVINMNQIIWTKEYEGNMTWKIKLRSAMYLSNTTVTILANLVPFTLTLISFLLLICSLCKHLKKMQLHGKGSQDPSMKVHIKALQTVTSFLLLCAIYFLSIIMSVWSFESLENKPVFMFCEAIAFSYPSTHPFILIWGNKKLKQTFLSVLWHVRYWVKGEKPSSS

[4] = biological target: T4, Taste receptor type 2 member 4 (Homo sapiens) (UniProt Q9NYW5); experiment: Antagonist activity at recombinant human N-terminal rat ST3 receptor-fused TAS2R4 expressed in HEK293T cells co-expressing Galpha16gust44 assessed as inhibition of colchicine-induced increase in intracellular calcium level at 100 uM by FLIPR assay
T4 sequence (whole entry): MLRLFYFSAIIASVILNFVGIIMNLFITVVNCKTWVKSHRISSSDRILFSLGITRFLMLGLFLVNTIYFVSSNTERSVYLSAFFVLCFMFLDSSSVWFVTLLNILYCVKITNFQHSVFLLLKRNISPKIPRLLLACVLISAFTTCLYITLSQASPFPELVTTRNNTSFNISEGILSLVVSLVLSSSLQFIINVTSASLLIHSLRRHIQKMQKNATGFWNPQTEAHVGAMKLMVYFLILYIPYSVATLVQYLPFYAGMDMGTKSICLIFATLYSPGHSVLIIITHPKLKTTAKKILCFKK

[5] = biological target: T5, Taste receptor type 2 member 3 (Homo sapiens) (UniProt Q9NYW6); experiment: Antagonist activity at recombinant human N-terminal rat ST3 receptor-fused TAS2R3 expressed in HEK293T cells co-expressing Galpha16gust44 assessed as inhibition of chloroquine-induced increase in intracellular calcium level at 100 uM by FLIPR assay
T5 sequence (whole entry): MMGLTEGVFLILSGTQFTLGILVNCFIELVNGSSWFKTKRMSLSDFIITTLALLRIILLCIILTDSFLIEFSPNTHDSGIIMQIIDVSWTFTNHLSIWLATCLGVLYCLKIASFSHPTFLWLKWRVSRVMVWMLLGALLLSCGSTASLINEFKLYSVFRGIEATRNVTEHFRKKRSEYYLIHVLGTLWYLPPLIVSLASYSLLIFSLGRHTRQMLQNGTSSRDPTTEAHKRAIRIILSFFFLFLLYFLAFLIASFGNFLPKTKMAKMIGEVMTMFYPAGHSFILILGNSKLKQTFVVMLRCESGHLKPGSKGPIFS

[6] = biological target: T6, Taste receptor type 2 member 1 (Homo sapiens) (UniProt Q9NYW7); experiment: Antagonist activity at recombinant human N-terminal rat ST3 receptor-fused TAS2R1 expressed in HEK293T cells co-expressing Galpha16gust44 assessed as inhibition of trans-isocohumulone-induced increase in intracellular calcium level at 100 uM by FLIPR assay
T6 sequence (whole entry): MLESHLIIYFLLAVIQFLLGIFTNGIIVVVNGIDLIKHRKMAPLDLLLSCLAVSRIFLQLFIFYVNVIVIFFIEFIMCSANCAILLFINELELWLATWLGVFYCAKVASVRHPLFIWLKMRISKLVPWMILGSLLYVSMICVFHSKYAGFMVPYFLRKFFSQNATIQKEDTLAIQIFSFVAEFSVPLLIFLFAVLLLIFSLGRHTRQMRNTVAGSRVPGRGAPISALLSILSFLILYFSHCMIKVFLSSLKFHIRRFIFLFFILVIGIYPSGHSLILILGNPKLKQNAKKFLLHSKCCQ

[7] = biological target: T7, Taste receptor type 2 member 8 (Homo sapiens) (UniProt Q9NYW2); experiment: Antagonist activity at recombinant human N-terminal rat ST3 receptor-fused TAS2R8 expressed in HEK293T cells co-expressing Galpha16gust44 assessed as inhibition of chloramphenicol-induced increase in intracellular calcium level at 100 uM by FLIPR assay
T7 sequence (whole entry): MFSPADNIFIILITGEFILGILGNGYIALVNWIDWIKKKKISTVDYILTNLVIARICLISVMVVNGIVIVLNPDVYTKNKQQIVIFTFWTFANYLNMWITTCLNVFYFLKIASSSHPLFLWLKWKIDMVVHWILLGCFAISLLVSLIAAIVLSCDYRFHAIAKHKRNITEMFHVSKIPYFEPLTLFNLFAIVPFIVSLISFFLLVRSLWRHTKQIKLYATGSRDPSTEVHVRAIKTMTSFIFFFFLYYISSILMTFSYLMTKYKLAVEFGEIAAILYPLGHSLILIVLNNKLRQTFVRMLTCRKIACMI

## C/C1=C\C[C@H](O)[C@@H](C)C[C@H]2OC(=O)[C@@H](C)[C@@H]2CC1
[1]
  inhibition: inactive
[2]
  inhibition: inactive
[3]
  inhibition: Active
[4]
  inhibition: inactive
[5]
  inhibition: inactive
[6]
  inhibition: inactive
[7]
  inhibition: inactive

## C/C1=C\C[C@H](O)/C(C)=C/[C@H]2OC(=O)[C@@H](C)[C@@H]2CC1
[1]
  inhibition: inactive
[2]
  inhibition: inactive
[3]
  inhibition: Active
[4]
  inhibition: inactive
[5]
  inhibition: inactive
[6]
  inhibition: inactive
[7]
  inhibition: inactive

Source: ChEMBL document CHEMBL4418912, “Methods of identifying antagonists of the hTAS2R46 bitter taste receptor” (2014)
